US9295673B2, “Combination of mTOR inhibitors and P13-kinase inhibitors, and uses thereof” (Intellikine LLC, priority 2011, dated 2016)
Read-outs that look alike come from different tables or passages of the source.

Assays:
PI3K δ = PI3K δ (Homo sapiens, UniProt O00329); assay: PI 3-Kinase (human) HTRF assay, PI3K δ
Description: (§1) An exemplary system is PI 3-Kinase (human) HTRF™ Assay from Upstate. […] Briefly, the assay is a time resolved FRET assay that indirectly measures PIP3 product formed by the activity of a PI3-K. The kinase reaction is performed in a microtitre plate (e.g., a 384 well microtitre plate). The total reaction volume is approximately 20 ul per well. In the first step, each well receives 2 ul of test compound in 20% dimethylsulphoxide resulting in a 2% DMSO final concentration. […] The plate is sealed and incubated for 15 minutes at room temperature. […] The plate is sealed and incubated for 1 hour at room temperature. The reaction is stopped by adding 5 ul of Stop Solution per well and then 5 ul of Detection Mix is added per well. The plate is sealed, incubated for 1 hour at room temperature, and then read on an appropriate plate reader. Data is analyzed and IC50s are generated using GraphPad Prism 5.

PI3K β = PI3K β (Homo sapiens, UniProt P42338); assay: PI 3-Kinase (human) HTRF assay, PI3K β; settings: read-out: PI3K β IC50
PI3K γ = PI3K γ (Homo sapiens, UniProt P48736); assay: PI 3-Kinase (human) HTRF assay, PI3K γ; settings: read-out: PI3K γ IC50
Sequence of PI3K γ (P48736 whole entry): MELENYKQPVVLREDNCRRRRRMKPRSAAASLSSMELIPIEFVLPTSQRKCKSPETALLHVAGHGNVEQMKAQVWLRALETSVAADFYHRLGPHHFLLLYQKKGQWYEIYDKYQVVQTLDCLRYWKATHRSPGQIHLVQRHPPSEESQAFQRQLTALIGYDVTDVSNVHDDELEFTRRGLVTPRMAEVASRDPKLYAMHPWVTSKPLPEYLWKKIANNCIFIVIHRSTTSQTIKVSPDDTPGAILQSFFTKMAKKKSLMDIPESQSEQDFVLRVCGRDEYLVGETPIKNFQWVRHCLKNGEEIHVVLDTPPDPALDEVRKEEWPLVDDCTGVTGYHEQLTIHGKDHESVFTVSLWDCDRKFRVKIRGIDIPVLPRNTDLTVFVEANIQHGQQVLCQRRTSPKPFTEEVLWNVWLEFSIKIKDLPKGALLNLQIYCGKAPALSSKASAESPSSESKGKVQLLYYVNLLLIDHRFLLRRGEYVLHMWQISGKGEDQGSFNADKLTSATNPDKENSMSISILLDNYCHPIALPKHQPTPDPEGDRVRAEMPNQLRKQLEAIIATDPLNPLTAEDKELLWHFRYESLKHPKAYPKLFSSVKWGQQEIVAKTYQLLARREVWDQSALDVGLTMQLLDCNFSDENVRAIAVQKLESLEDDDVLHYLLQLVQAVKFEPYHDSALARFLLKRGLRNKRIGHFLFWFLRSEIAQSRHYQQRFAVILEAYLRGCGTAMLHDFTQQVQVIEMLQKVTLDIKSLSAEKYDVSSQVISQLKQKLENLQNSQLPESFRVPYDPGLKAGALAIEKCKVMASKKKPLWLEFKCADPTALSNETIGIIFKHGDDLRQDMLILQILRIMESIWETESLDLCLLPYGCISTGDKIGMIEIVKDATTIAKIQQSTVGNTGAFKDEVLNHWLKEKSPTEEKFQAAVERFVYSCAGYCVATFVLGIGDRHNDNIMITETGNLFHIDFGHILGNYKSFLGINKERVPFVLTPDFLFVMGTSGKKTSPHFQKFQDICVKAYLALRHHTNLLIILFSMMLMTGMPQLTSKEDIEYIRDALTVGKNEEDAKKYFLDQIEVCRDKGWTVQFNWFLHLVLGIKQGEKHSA

PI3K α = PI3K α (Homo sapiens, UniProt P42336); assay: PI 3-Kinase (human) HTRF assay, PI3K α
Sequence of PI3K α (P42336 whole entry): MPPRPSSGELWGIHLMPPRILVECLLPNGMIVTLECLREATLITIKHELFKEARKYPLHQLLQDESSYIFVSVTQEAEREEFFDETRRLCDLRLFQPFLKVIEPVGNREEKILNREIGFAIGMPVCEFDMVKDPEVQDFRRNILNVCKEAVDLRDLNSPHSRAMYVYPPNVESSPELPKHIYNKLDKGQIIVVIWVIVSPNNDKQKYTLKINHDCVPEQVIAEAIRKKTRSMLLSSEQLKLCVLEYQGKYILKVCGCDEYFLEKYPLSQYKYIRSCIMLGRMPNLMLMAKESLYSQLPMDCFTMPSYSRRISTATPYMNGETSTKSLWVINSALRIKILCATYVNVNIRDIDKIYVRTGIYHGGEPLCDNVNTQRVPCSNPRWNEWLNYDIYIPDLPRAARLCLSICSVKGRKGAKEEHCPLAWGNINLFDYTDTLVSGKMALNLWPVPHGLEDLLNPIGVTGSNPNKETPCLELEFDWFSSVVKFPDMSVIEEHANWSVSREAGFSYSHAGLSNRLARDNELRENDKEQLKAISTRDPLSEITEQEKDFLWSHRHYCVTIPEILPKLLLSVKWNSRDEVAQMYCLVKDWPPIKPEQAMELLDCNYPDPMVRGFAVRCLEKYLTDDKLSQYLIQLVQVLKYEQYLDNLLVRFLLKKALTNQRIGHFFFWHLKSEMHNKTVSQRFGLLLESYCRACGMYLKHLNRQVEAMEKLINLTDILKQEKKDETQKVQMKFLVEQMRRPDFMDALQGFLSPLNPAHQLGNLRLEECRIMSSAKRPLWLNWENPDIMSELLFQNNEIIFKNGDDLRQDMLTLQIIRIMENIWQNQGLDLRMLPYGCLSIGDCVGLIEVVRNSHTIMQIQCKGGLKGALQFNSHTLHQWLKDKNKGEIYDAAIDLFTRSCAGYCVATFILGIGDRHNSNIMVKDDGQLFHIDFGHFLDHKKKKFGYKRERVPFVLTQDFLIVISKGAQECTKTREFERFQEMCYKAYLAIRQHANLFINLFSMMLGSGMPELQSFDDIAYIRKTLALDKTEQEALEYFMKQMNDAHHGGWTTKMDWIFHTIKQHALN
Sequence of PI3K α (P27986 whole entry partner): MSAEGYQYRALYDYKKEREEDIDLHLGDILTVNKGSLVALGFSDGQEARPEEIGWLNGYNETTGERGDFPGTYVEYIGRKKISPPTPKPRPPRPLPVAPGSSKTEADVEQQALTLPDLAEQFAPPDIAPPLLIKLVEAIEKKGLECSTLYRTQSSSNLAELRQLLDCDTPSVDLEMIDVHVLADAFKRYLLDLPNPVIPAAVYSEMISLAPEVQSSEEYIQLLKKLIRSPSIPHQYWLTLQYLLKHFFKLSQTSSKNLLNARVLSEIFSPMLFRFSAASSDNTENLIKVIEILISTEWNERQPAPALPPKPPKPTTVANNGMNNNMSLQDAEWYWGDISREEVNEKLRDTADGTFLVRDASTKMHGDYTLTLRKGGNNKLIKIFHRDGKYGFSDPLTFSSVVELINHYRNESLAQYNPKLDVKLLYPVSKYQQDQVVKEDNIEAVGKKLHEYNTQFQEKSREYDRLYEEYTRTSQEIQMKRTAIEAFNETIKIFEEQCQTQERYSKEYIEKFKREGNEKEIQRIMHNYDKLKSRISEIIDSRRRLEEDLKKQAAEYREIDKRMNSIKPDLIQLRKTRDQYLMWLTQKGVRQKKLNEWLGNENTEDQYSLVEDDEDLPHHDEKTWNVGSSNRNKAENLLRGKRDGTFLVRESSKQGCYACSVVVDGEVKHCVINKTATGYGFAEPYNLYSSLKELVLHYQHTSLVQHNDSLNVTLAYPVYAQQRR
Description: as §1

Sequence of PI3K β (P42338 whole entry): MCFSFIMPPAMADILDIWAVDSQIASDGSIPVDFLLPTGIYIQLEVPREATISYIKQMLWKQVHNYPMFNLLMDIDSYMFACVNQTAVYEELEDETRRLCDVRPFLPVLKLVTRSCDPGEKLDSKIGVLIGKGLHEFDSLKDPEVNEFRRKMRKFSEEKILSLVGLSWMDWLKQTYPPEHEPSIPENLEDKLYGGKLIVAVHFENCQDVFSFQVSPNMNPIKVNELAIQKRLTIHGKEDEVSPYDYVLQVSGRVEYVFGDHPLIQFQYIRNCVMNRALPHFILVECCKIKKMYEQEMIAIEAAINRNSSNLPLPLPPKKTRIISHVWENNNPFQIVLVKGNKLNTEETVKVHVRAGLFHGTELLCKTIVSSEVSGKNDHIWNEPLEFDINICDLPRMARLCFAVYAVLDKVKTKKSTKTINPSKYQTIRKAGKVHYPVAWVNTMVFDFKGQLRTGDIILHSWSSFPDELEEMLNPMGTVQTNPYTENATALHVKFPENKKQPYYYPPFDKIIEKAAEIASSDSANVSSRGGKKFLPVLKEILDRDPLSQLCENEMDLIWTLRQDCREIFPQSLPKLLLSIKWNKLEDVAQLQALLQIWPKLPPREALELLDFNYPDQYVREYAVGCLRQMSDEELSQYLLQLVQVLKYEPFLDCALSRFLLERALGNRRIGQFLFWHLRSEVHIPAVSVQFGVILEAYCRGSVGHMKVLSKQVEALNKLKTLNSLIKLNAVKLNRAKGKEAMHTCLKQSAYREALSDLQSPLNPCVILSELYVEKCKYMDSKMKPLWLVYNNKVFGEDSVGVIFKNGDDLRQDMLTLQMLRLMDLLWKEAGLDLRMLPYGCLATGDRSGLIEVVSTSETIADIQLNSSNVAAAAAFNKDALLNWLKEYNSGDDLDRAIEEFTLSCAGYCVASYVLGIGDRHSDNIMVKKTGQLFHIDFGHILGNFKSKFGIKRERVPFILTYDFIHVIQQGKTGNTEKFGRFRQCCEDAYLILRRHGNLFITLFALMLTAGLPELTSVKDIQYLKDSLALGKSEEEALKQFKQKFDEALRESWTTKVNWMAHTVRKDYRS
Sequence of PI3K β (P27986 whole entry partner): as the sequence (P27986 whole entry partner) above
Sequence of PI3K δ (O00329 whole entry): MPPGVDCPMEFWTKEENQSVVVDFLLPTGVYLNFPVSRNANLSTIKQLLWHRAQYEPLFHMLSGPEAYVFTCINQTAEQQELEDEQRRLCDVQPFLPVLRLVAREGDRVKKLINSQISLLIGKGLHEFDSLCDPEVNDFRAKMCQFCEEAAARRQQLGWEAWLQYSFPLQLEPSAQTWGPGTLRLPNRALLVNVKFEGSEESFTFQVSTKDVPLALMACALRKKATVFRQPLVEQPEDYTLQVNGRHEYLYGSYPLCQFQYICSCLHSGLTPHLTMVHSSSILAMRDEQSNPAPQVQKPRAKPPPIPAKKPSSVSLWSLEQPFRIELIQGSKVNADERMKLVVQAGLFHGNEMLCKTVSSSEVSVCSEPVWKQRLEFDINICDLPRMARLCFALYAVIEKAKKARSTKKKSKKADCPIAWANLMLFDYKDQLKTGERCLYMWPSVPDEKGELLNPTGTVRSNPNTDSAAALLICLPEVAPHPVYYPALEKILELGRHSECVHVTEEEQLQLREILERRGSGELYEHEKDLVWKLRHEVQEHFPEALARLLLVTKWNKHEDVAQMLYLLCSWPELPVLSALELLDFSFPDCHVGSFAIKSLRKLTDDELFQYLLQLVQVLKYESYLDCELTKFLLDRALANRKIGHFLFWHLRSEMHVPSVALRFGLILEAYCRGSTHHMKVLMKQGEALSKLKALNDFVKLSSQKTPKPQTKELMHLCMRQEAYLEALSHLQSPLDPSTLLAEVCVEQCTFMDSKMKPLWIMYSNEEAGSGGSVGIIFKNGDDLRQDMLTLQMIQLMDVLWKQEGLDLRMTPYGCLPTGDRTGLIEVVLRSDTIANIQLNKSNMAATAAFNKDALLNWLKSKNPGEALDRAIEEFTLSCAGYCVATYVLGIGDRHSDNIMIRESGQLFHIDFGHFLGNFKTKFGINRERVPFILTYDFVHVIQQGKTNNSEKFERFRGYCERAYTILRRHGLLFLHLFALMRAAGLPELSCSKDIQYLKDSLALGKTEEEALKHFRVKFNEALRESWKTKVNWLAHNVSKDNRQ
Sequence of PI3K δ (P27986 whole entry partner): as the sequence (P27986 whole entry partner) above

Compound	IC50 (PI3K δ; read-out: PI3K δ IC50, Table 4) [µM]	IC50 (PI3K β; Table 4) [µM]	IC50 (PI3K γ; Table 4) [µM]	further results
C[C@H]1CN(C2CN(c3cnc4ccc(-c5ccc6oc(N)nc6c5)nc4n3)C2)CCN1C [Compound 572]	< 10	–	–	–
C[C@@H](N)C(=O)N1CCN(c2cnc3ccc(-c4ccc5oc(N)nc5c4)nc3n2)CC1 [Compound 582]	–	< 10	–	IC50 (PI3K δ; read-out: PI3K δ IC50): < 10 µM
C[C@@H]1CN(C2CN(c3cnc4ccc(-c5ccc6oc(N)nc6c5)nc4n3)C2)CCN1C [Compound 576]	< 10	–	< 10	–
COC(=O)Nc1noc2ccc(-c3nn(C(C)C)c4ncnc(N)c34)cc12 [Compound 20]	–	–	–	IC50 (PI3K δ): < 10 µM; IC50 (PI3K α): < 10 µM
C[C@H]1CN(C2CN(c3cnc4ccc(-c5ccc6oc(N)nc6c5)nc4n3)C2)CCN1 [Compound 561]	< 10	–	< 10	–
Nc1nc2cc(-c3ccc4ncc(N5CC(N6CCN(CC7CC7)CC6)C5)cc4n3)ccc2o1 [Compound 611]	–	< 10	< 10	–
CC1(C)CN(C2CN(c3cnc4ccc(-c5ccc6oc(N)nc6c5)nc4c3)C2)CCN1 [Compound 609]	–	< 10	–	–
CCN(CC)c1cnc2ccc(-c3ccc4oc(N)nc4c3)nc2n1 [Compound 577]	< 10	–	–	–
C[C@H]1COCCN1C1CN(c2cnc3ccc(-c4ccc5oc(N)nc5c4)nc3n2)C1 [Compound 612]	< 10	–	< 10	–
Cc1ncc(-c2ccc3ncc(C(=O)N4CCOCC4)n3c2)c2cn[nH]c12 [Compound 530]	–	–	–	IC50 (PI3K δ; read-out: PI3K δ IC50, in vitro): < 10 µM
CC(C)(N)C(=O)N1CCN(c2cnc3ccc(-c4ccc5oc(N)nc5c4)nc3n2)CC1 [Compound 591]	–	< 10	< 10	IC50 (PI3K δ; read-out: PI3K δ IC50): < 10 µM
C[C@H]1CN(c2cnc3ccc(-c4ccc5oc(N)nc5c4)nc3c2)CCN1 [Compound 598]	–	–	–	IC50 (PI3K δ; read-out: PI3K δ IC50): < 10 µM
Nc1nc2cc(-c3ccc4ncc(C5=CCOCC5)nc4n3)ccc2o1 [Compound 562]	–	< 10	–	–
C[C@@H]1CN(c2cnc3ccc(-c4ccc5oc(N)nc5c4)nc3n2)CCN1 [Compound 578]	< 10	–	–	–
Nc1nc2cc(-c3ccc4ncc(N5CC(N6CC[C@H](O)C6)C5)nc4c3)ccc2o1 [Compound 322]	–	–	–	IC50 (PI3K δ; read-out: PI3K δ IC50): < 10 µM
CN1CCN(C2CN(c3cnc4ccc(-c5ccc6oc(N)nc6c5)nc4n3)C2)CC1 [Compound 622]	–	< 10	–	–
Cc1nccn1C1CN(c2cnc3ccc(-c4ccc5oc(N)nc5c4)nc3n2)C1 [Compound 601]	< 10	< 10	< 10	–

Compound	IC50 (PI3K δ; read-out: PI3K δ IC50, Table 4) [µM]	IC50 (PI3K β; Table 4) [µM]	IC50 (PI3K γ; Table 4) [µM]	further results
CCN1CCN(C2CN(c3cnc4ccc(-c5ccc6oc(N)nc6c5)nc4n3)C2)CC1 [Compound 627]	< 10	< 10	< 10	–
C[C@H]1CN(C2CN(c3cnc4ccc(-c5ccc6oc(N)nc6c5)nc4c3)C2)CCN1 [Compound 605]	–	< 10	< 10	–
CN1CCN([C@H]2CCN(c3cnc4ccc(-c5ccc6oc(N)nc6c5)cc4n3)C2)CC1 [Compound 381]	–	–	–	IC50 (PI3K δ; read-out: PI3K δ IC50): < 10 µM
CCN1CCN(C2CN(c3cnc4ccc(-c5ccc6oc(N)nc6c5)nc4c3)C2)CC1 [Compound 626]	–	–	< 10	–
C[C@H]1COCCN1C1CN(c2cnc3ccc(-c4ccc5oc(N)nc5c4)nc3c2)C1 [Compound 619]	–	–	< 10	–
CCOC(=O)N1CC=C(c2cnc3ccc(-c4ccc5oc(N)nc5c4)nc3n2)CC1 [Compound 560]	< 10	< 10	–	–
CC(C)N1CCN(C2CN(c3cnc4ccc(-c5ccc6oc(N)nc6c5)nc4n3)C2)CC1 [Compound 628]	–	–	–	IC50 (PI3K α; read-out: PI3K α IC50, Table 4): < 10 µM
CN1CCN(c2ccc3ncc(-c4ccc5oc(N)nc5c4)cc3n2)CC1 [Compound 631]	–	< 10	–	IC50 (PI3K α; read-out: PI3K α IC50, Table 4): < 10 µM
NC(=O)[C@H]1CCCN1C(=O)c1cnc2ccc(-c3ccc4oc(N)nc4c3)cn12 [Compound 260]	–	–	–	IC50 (PI3K γ): < 10 µM
Cc1nccn1C1CN(c2cnc3ccc(-c4ccc5oc(N)nc5c4)nc3c2)C1 [Compound 614]	–	< 10	–	–
Nc1nc2cc(-c3ccc4ncc(N5CC(N6CCN(CCO)CC6)C5)nc4n3)ccc2o1 [Compound 597]	< 10	< 10	< 10	–
Nc1nc2cc(-c3ccc4ncc(-c5cccnc5)cc4n3)ccc2o1 [Compound 567]	< 10	< 10	–	–
Nc1nc2cc(-c3ccc4ncc(-c5cccnc5)nc4n3)ccc2o1 [Compound 554]	–	< 10	–	–
CCOC(=O)N1CCN(c2cnc3ccc(-c4ccc5oc(N)nc5c4)nc3c2)CC1 [Compound 587]	–	< 10	–	–
C[C@@H]1COCCN1c1cnc2ccc(-c3ccc4oc(N)nc4c3)nc2n1 [Compound 565]	< 10	< 10	–	–
C[C@H]1CN(c2cnc3ccc(-c4ccc5oc(N)nc5c4)nc3n2)CCN1 [Compound 552]	< 10	–	< 10	–
CN1CCN(CCNC(=O)c2cnc3ccc(-c4ccc5oc(N)nc5c4)cn23)CC1 [Compound 306]	–	–	–	IC50 (PI3K δ; read-out: PI3K δ IC50): < 1 µM; IC50 (PI3K α; read-out: PI3K α IC50): < 0.1 µM; IC50 (PI3K β): < 1 µM
